Experimental data from patent US7238708B2, “Glucose sensor” (The Regents of the University of California, priority 2004, dated 2007).
Where “and” joins values, the source holds several entries; their conditions need not be identical. Identical values can stand only once. Like-named read-outs stand apart in the source and are kept apart here.

Legend:
hSGLT3 [1] = molecular target: T1, hSGLT3 (Homo sapiens, UniProt Q9NY91); assay: two-electrode voltage-clamp, membrane potential of hSGLT3-expressing Xenopus oocytes; assay type: cell-based; details: for inhibition of glucose-induced membrane depolarization: 250 μM phlorizin; for effect on the membrane potential: concentrations as high as 100 mM; for membrane depolarization: 5 mM sugar, Na+ buffer pH 7.5, single oocyte; for effect on the membrane potential (qualitative): exposure of hSGLT3 oocytes to sugar
T1 construct: The complete hSGLT3 clone was created by ligation of this PCR product to the 3′-end of hSGLT3 at the HindIII site; expressed in transfected cells; host or cells: Xenopus laevis oocytes injected with hSGLT3 cRNA
T1 sequence (Q9NY91 1-659): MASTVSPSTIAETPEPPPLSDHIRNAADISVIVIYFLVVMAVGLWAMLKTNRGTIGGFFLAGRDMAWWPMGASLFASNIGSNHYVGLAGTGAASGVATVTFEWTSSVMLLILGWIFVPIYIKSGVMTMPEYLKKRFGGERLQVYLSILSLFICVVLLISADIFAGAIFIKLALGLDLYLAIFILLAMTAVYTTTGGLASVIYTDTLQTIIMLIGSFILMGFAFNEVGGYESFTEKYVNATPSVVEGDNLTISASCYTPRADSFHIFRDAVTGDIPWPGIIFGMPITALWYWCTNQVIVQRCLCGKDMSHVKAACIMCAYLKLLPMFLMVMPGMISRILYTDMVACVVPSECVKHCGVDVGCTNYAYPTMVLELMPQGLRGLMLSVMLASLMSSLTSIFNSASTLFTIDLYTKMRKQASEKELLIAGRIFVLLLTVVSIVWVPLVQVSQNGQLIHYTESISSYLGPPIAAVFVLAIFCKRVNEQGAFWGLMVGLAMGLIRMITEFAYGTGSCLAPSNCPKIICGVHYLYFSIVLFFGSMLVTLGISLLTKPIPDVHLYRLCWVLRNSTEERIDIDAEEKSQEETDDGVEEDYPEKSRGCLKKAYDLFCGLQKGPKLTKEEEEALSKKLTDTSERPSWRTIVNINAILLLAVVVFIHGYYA
Procedure: (§1) Expression of hSGLT3 in oocytes. Stage VI oocytes from Xenopus laevis (Nasco, Fort Atkinson, Wis.) were defolliculated and injected with hSGLT3 cRNA and maintained at 18° C. in modified Barth's medium containing gentamycin (5 mg/ml) and penicillin (100 units/ml)/streptomycin (100 μg/ml). Each oocyte was injected with 20 ng of cRNA. Experiments were performed at 22±1° C., 3-9 days after the injection.
(§2) Two electrode-voltage clamp. Oocytes expressing SGLTs and control oocytes were placed in the chamber, impaled with the two electrodes and continuously superfused with the required medium (Loo et al. (1998) Proc. Natl. Acad. Sci. USA 95:7789-7794). Membrane potential changes and ionic currents were measured when adding different sugar concentrations. Sugar-specific changes in current were the difference between the values measured with sugar and the preceding value in buffer alone. Na^+ buffer contained 100 mM NaCl, 2 mM KCl, 1 mM CaCl2, 1 mM MgCl2 and 10 mM HEPES/tris (pH 7.5). In Na^+-free buffer, choline Cl replaced NaCl, and for the experiments at pH 5.0 HEPES/tris was replaced with MES/tris. In some experiments at low pH we simultaneously recorded the intracellular pH of the oocyte using the fluorescent dye BCECF-AM (15, 16). The apparent affinity (K0.5) and apparent maximal current (Imax) were calculated with the equation [1]=Imax. [S]/(K0.5+[S]), using the non-linear fitting method in SigmaPlot (SPSS, Chicago, Ill.) where [S] is the sugar concentration. The results are illustrated by experiments on single oocytes, but each was representative of at least 3-8 different oocytes.
(§3) Using the techniques described above, a two-electrode voltage-clamp was used to monitor hSGLT3's electrical properties in Xenopus oocytes. The oocytes were exposed to candidate compounds, and the depolarization of membrane potential was recorded.

guinea pig ileum = assay: mechanical activity of guinea pig ileum
[2] = injected into the cerebrospinal fluid; cited from earlier work
[3] = tested on: glucose-responsive neurons in the hypothalamus; details: cited from earlier work
control cells = assay: response of control cells to amino sugars; assay type: cell-based, Xenopus laevis; details: 30 mM
Procedure: as §2, with “The results are illustrated by experiments on single oocytes, but each was representative of at least 3-8 different oocytes.” left out
as §3

SGLT1 [4] = molecular target: T2, SGLT1 (Homo sapiens, UniProt P13866); assay: response of cells expressing SGLT1 to amino sugars; assay type: cell-based; set-up: expressed in transfected cells; host or cells: cells expressing SGLT1; Xenopus oocytes are inferred from 'Using the techniques described above'; details: 30 mM
T2 sequence (P13866 1-664): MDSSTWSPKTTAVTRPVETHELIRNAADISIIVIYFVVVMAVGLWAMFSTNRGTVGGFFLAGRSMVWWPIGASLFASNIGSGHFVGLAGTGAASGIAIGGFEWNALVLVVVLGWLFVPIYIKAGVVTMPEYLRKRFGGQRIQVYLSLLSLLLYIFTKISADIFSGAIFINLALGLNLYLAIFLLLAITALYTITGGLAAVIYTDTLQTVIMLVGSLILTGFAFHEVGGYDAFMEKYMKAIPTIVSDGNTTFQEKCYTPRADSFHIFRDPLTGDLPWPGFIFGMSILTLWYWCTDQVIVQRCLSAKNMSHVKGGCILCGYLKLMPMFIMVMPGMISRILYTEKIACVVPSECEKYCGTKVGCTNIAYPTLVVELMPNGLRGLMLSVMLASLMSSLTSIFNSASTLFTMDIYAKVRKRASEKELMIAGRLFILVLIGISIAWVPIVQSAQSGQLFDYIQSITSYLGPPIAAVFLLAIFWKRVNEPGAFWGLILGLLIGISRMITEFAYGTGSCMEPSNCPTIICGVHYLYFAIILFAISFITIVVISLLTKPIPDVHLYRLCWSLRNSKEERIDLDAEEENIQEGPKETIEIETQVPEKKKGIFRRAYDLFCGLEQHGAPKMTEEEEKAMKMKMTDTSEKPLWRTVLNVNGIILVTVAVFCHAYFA
Procedure: as §2, with “The results are illustrated by experiments on single oocytes, but each was representative of at least 3-8 different oocytes.” left out
as §3

hSGLT3 [5] = molecular target: T1, hSGLT3; assay: sugar-induced currents in hSGLT3-expressing oocytes under voltage clamp; assay type: cell-based
Procedure: as §1, §2

hSGLT3 [6] = molecular target: T1, hSGLT3; assay: simultaneous [14C]-glucose uptake and sugar-induced current in hSGLT3-expressing oocytes; assay type: cell-based
Procedure: as §1
(§4) Uptake experiments. Control oocytes or oocytes expressing a SGLT were superfused with a buffer solution containing either 100 mM NaCl or choline chloride at pH 7.5 or 5 while the plasma membrane potential was clamped at voltages between −50 and −110 mV. […] After the sugar was removed from the bathing solution the current returned to the baseline. The oocyte was washed, solubilized and glucose uptake determined using a scintillation spectrometer. Sugar-induced current was obtained by integrating the difference between baseline and the glucose-dependent current. The current, measured simultaneously with sugar uptake, was converted to its molar equivalent of univalent charge. [^14C]-glucose uptake in non-injected oocytes from the same batch of oocytes was used as a control.

pSGLT3 = molecular target: T3, pSGLT3 (Sus scrofa, UniProt P31636); assay: ratio of positive ion uptake and sugar uptake in pSGLT3-expressing oocytes; assay type: cell-based, pig
T3 construct: expressed in transfected cells; host or cells: Xenopus laevis oocytes expressing pig SGLT3
T3 sequence (P31636 1-660): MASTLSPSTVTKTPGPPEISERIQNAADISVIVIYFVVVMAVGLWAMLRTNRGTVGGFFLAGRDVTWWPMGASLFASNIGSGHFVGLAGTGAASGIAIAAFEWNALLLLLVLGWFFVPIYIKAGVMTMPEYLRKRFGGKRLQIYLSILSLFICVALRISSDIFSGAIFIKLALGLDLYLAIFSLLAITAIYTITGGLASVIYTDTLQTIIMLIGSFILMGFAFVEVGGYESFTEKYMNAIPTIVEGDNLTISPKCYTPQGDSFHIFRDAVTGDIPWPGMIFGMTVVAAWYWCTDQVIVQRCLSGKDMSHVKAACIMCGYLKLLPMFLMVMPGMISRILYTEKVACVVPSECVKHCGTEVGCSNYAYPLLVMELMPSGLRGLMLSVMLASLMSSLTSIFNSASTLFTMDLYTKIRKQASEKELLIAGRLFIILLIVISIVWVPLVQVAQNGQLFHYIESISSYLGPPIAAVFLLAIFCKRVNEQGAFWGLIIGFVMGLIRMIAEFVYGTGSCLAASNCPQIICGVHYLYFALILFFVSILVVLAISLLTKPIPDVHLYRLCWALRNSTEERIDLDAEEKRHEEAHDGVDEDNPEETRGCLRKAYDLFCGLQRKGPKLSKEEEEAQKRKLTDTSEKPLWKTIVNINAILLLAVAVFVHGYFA
Procedure: as §4

SGLT1 [7] = molecular target: T2, SGLT1; set-up: host or cells: Xenopus laevis oocytes expressing hSGLT1; details: cited from earlier work
neuroendocrine cells = details: Na+-dependent and phlorizin-sensitive manner; cited from earlier work
[8] = 2 mM glucose, -70 mV, Na+ buffer pH 5

In the case of `O=C(CCc1ccc(O)cc1)c1c(O)cc(O)cc1O[C@@H]1O[C@H](CO)[C@@H](O)[C@H](O)[C@H]1O` [phlorizin], the “block of the responses to the amino sugars” value (hSGLT3 [1]) is reported as “blocked”, the “inhibition of glucose-induced membrane depolarization” value (hSGLT3 [1]) is reported as “blocked” and the “inhibition of glucose-induced membrane depolarization” value (hSGLT3 [1]; listed as Phlorizin) is reported as “inhibited the membrane depolarization”. For the same molecule, the “block of the effect of glucose on mechanical activity of guinea pig ileum” value (guinea pig ileum) was “blocked”, the food intake [2] was “increases food intake” and the “glucose mediated increase in firing rate” value [3] was “blocks”.

In the case of `CCN1C[C@H](O)[C@@H](O)[C@H](O)[C@H]1CO` [N-(n-ethyl)deoxynojirimycin], the “effects on control cells” value (control cells) is reported as “no effects” and the “effects on cells expressing SGLT1” value (SGLT1 [4]) is reported as “no effects”.

With `OC[C@@H](O)[C@@H](O)[C@H](O)[C@H](O)CO` [mannitol] the “effect on the membrane potential” value (hSGLT3 [1]) was “no effect”.

For `O=C(CO)[C@@H](O)[C@H](O)[C@H](O)CO` [D-fructose], the “effect on the membrane potential” value (hSGLT3 [1]) was “no effect”.

In the case of `OC[C@H]1NC[C@H](O)[C@@H](O)[C@@H]1O` [Deoxynojirimycin], the EC50 (hSGLT3 [1]; range printed with mixed units (nanomolar to micromolar), read-out: affinities to activate SGLT2) is reported as 0.0005 to 0.002 mM, the “effects on control cells” value (control cells) is reported as “no effects” and the “effects on cells expressing SGLT1” value (SGLT1 [4]) is reported as “no effects”.

For `O=C[C@H](O)C[C@H](O)[C@H](O)CO` [3-deoxy-D-glucose], the “effect on the membrane potential” value (hSGLT3 [1]) was “failed to affect the membrane potential”.

In the case of `O=C[C@H](O)[C@@H](O)[C@H](O)[C@H](O)CO` [D-glucose], the “depolarization of the membrane potential by phlorizin sensitive inward current” value (hSGLT3 [1]) is reported as “up to 50 mV”, the membrane depolarization (hSGLT3 [1]) is reported as “about 4 mV” and the ΔVmax (hSGLT3 [1]; 6 experiments) is reported as 26±9 mV. For the same molecule, the EC50 (hSGLT3 [1]; K0.5 (apparent affinity) of depolarization, 6 experiments, pH 7.5) was 60 mM and ~60 mM, the “effect on the membrane potential (qualitative)” value (hSGLT3 [1]) was “reversibly depolarized the membrane potential” and the “maximal depolarization (ΔVm)” value (hSGLT3 [1]; fit of a single oocyte (FIG. 4B)) was 23 mV. The “activation energy (Ea) of glucose-induced current” value (hSGLT3 [5]; pH 5, presence and absence of Na+, 10, 22 and 28° C., Arrhenius plots) was ~9 kcal/mol, the “cation uptake in hSGLT3 oocytes” value (hSGLT3 [6]; 2 mM D-glucose, 5 minutes, Na+ pH 5, n=5) was 81 ± 7 pmol and the “D-glucose uptake in hSGLT3 oocytes” value (hSGLT3 [6]; 2 mM D-glucose, 5 minutes, Na+ pH 5, n=5, control oocytes 11±0.6) was 11 ± 0.5 pmol. The “glucose uptake in hSGLT3 oocytes compared with control oocytes” value (hSGLT3 [6]; [8]) was “identical to that in control oocytes”, the “sugar dependent current equivalent to univalent positive charge” value (hSGLT3 [6]; [8]) was 81±7 pmol per 5 minutes and the “ratio positive charge / sugar uptake” value (pSGLT3; acidic pH, n=6) was 4.7±0.2. The “ratio positive charge / sugar uptake” value (pSGLT3; neutral pH, n=12) was 2.1±0.1, the “ratio positive ion uptake / sugar uptake” value (SGLT1 [7]; Na+ at neutral pH, n=4) was 2.1±0.04 and the “ratio positive ion uptake / sugar uptake” value (SGLT1 [7]; acidic pH in H+, n=7) was 2±0.1.

With `CO[C@H]1O[C@H](CO)[C@@H](O)[C@H](O)[C@H]1O` [αMDG, α-methyl-D-glucopyranoside] the membrane depolarization (hSGLT3 [1]) was “about 4 mV”, the “effect on the membrane potential (qualitative)” value (hSGLT3 [1]) was “reversibly depolarized the membrane potential” and the “maximum current at saturating sugar concentration (Imax)” value (hSGLT3 [5]; -150 mV, Na+ buffer, n=5) was 122±20 nA. The EC50 (hSGLT3 [5]; -150 mV, Na+ buffer, n=5, read-out: apparent sugar affinity (K0.5) of current) was 36 ± 6 mM, the Imax (hSGLT3 [5]; pH 5 in Choline Cl, four oocytes) was 2385±651 nA and the Imax (hSGLT3 [5]; pH 5 in NaCl, four oocytes) was 1725±99 nA. The EC50 (hSGLT3 [5]; pH 5 in NaCl, four oocytes, read-out: K0.5) was 41 ± 7 mM and the GLP-1 peptide secretion (neuroendocrine cells) was “stimulates GLP-1 peptide secretion”.

With `O=C[C@H](O)[C@@H](O)[C@@H](O)[C@H](O)CO` [D-galactose] the membrane depolarization (hSGLT3 [1]) was “no effect” and the “effect on the membrane potential” value (hSGLT3 [1]) was “no effect”.
